Assay results published in US20080261994A1, “CYCLOPROPANE COMPOUNDS AND PHARMACEUTICAL USE THEREOF” (Japan Tobacco Inc., priority 2003, published 2008).

Tests used:
Format in all cases: biochemical
aggrecanase-1 = target: T1, aggrecanase-1 (Homo sapiens, UniProt O75173); assay: Aggrecanase-1 inhibitory action (Particle Assay, GAG release from aggrecan-containing polyacrylamide particles); details: Experimental Example 1; read-out: IC50 AG1
T1 sequence (O75173 213-837): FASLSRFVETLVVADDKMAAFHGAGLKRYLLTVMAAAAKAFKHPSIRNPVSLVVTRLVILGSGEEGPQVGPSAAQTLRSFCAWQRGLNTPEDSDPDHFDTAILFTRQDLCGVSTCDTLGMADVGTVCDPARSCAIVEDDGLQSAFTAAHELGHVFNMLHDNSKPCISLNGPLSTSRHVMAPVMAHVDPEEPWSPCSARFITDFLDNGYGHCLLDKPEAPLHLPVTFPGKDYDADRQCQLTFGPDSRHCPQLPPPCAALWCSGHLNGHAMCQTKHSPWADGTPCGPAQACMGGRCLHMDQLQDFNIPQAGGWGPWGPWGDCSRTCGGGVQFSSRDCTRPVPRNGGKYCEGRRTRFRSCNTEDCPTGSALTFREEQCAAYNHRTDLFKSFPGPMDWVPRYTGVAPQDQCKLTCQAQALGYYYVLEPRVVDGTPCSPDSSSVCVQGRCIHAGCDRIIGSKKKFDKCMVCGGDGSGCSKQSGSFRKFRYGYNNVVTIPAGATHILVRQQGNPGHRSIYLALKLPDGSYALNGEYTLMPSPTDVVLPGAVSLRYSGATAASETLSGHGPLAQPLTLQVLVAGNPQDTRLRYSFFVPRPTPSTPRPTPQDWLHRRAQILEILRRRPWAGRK
Procedure, shortened: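 Readout was dimethylmethylene blue absorbance (595 nm) of glycosaminoglycan liberated into supernatant, calibrated with whale chondroitin sulfate. Substrate was aggrecan in polyacrylamide particles, digested 15 h at 37° C in Tris-HCl; TC50 (μM) derived from inhibition relative to no-enzyme and no-inhibitor controls.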

MMP-1 = target: T2, MMP-1 (Homo sapiens, UniProt P03956); assay: MMP-1 inhibitory action (Type I collagen Activity Measurement kit, FITC-labeled collagen type I); details: Experimental Example 2; read-out: IC50 MMP1
T2 sequence (P03956 100-469): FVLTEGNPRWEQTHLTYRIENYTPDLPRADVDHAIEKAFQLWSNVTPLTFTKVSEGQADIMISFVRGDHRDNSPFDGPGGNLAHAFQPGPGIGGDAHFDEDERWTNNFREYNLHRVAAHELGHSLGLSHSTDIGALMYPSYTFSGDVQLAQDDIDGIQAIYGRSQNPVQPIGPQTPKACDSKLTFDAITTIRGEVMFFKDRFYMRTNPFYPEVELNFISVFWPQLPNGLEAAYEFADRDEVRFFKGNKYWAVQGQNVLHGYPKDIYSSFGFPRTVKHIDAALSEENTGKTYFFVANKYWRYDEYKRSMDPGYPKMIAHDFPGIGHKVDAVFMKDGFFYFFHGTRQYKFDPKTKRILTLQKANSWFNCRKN

Recombinant Human MMP-13 = target: T3, Recombinant Human MMP-13 (Homo sapiens, UniProt P45452); assay: MMP-13 inhibitory activity (MMP-13 specific fluorescent substrate with quencher); details: Experimental Example 3; read-out: IC50 MMP13
T3 construct: purchased R&D systems 511-MM
Procedure, shortened: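 IC50 (μM) derived from % inhibition, normalised to wells without enzyme and without inhibitor, fluorescence read at 325/405 nm. Enzyme and compound preceded addition of the quenched 7-MCA…DPA substrate; Tris-HCl buffer, 25 °C for 1 h, acetic-acid stop.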

Compound | IC50 (aggrecanase-1) [µM] | IC50 (MMP-1) [µM] | IC50 (Recombinant Human MMP-13) [µM]
COCCCC1(c2ccccc2)CC1(NS(=O)(=O)c1ccc(-c2cc(C(F)(F)F)on2)s1)C(=O)O (stereo not drawn) [Example 2-588] | < 0.1 | < 1 | < 1
C[C@]1(c2ccccc2)C[C@@]1(NS(=O)(=O)c1ccc(-c2ccc(O)c(F)c2)s1)C(=O)O [Example 2-589] | < 1 | ≥ 1 | ≥ 1
CC1[C@H](c2ccccc2)[C@]1(NS(=O)(=O)c1ccc(-c2ccc(C(F)(F)F)cc2)s1)C(=O)O (stereo partly drawn) [Example 2-590] | < 0.1 | ≥ 1 | < 0.1
CC1[C@H](c2ccccc2)[C@]1(NS(=O)(=O)c1ccc(-c2nc3ccccc3s2)s1)C(=O)O (stereo partly drawn) [Example 2-591] | ≥ 1 | ≥ 1 | < 0.1
CC1C(NS(=O)(=O)c2ccc(-c3cc(C(F)(F)F)on3)s2)(C(=O)O)C1(C)c1ccccc1 (stereo not drawn) [Example 2-597] | ≥ 1 | ≥ 1 | ≥ 10
CC1C(NS(=O)(=O)c2ccc(-c3cc(C(F)(F)F)on3)s2)(C(=O)O)C1(C)c1ccccc1 (stereo not drawn) [Example 2-598] | < 0.1 | ≥ 1 | < 1
C[C@]1(c2ccccc2)C[C@@]1(NS(=O)(=O)c1ccc(-n2cc(C(F)(F)F)cn2)s1)C(=O)O [Example 2-599] | < 0.1 | ≥ 1 | < 1
C[C@]1(c2ccccc2)C[C@@]1(NS(=O)(=O)c1ccc(-c2ccc(F)c(O)c2)s1)C(=O)O [Example 2-600] | < 1 | ≥ 1 | < 1
C[C@]1(c2ccccc2)C[C@@]1(NS(=O)(=O)c1ccc(-n2cc(S(C)(=O)=O)cn2)s1)C(=O)O [Example 2-602] | < 0.1 | < 1 | < 1
COc1cccc(C2(C)CC2(NS(=O)(=O)c2ccc(-c3cc(C(F)(F)F)on3)s2)C(=O)O)c1 (stereo not drawn) [Example 2-610] | < 0.1 | < 1 | ≥ 1
CC1(c2cccc(F)c2)CC1(NS(=O)(=O)c1ccc(-c2cc(C(F)(F)F)on2)s1)C(=O)O (stereo not drawn) [Example 2-611] | < 0.1 | < 1 | ≥ 1
COc1ccccc1C1(C)CC1(NS(=O)(=O)c1ccc(-c2cc(C(F)(F)F)on2)s1)C(=O)O (stereo not drawn) [Example 2-613] | < 0.1 | < 1 | ≥ 1
CC1(c2cccc(S(C)(=O)=O)c2)CC1(NS(=O)(=O)c1ccc(-c2cc(C(F)(F)F)on2)s1)C(=O)O (stereo not drawn) [Example 2-614] | < 0.1 | < 1 | ≥ 1
CC1(c2ccccc2F)CC1(NS(=O)(=O)c1ccc(-c2cc(C(F)(F)F)on2)s1)C(=O)O (stereo not drawn) [Example 2-615] | < 0.1 | < 0.1 | < 0.1
CC1(c2cccnc2)CC1(NS(=O)(=O)c1ccc(-c2cc(C(F)(F)F)on2)s1)C(=O)O (stereo not drawn) [Example 2-617] | < 1 | ≥ 1 | ≥ 1

The next lines start with the values.

IC50 (aggrecanase-1) [µM] | IC50 (MMP-1) [µM] | IC50 (Recombinant Human MMP-13) [µM] | Compound
≥ 1 | ≥ 1 | < 1 | Cn1cc(-c2ccc(S(=O)(=O)N[C@@]3(C(=O)O)C[C@]3(C)c3ccccc3)s2)nn1 [Example 2-587]
< 1 | ≥ 1 | < 1 | C[C@]1(c2ccccc2)C[C@@]1(NS(=O)(=O)c1ccc(-c2ccc(C#N)c(F)c2)s1)C(=O)O [Example 2-593]
< 1 | ≥ 1 | < 1 | C[C@]1(c2ccccc2)C[C@@]1(NS(=O)(=O)c1ccc(-c2ccc(CO)c(F)c2)s1)C(=O)O [Example 2-594]
≥ 1 | ≥ 1 | < 0.1 | COc1ccc(-c2ccc(S(=O)(=O)N[C@@]3(C(=O)O)C[C@]3(C)c3ccccc3)s2)cc1Cl [Example 2-595]
< 1 | ≥ 1 | < 1 | CC1[C@H](c2ccccc2)[C@]1(NS(=O)(=O)c1ccc2nc(-c3ccccc3)[nH]c2c1)C(=O)O (stereo partly drawn) [Example 2-596]
< 1 | ≥ 1 | ≥ 1 | C[C@]1(c2ccccc2)C[C@@]1(NS(=O)(=O)c1ccc(-c2cc(O)c(F)c(F)c2)s1)C(=O)O [Example 2-601]
< 1 | < 1 | < 1 | C[C@]1(c2ccccc2)C[C@@]1(NS(=O)(=O)c1ccc(-n2cc(CO)cn2)s1)C(=O)O [Example 2-603]
≥ 1 | ≥ 10 | ≥ 1 | O=C(O)[C@]1(NS(=O)(=O)c2ccc(-n3cc(Br)cn3)s2)C[C@@H]1c1ccccc1 [Example 2-605]
≥ 1 | ≥ 10 | ≥ 1 | C[C@]1(c2ccccc2)C[C@@]1(NS(=O)(=O)c1ccc(-c2cccc(C(F)(F)CO)c2)s1)C(=O)O [Example 2-606]
≥ 1 | ≥ 1 | < 0.1 | COc1ccc2[nH]c(-c3ccc(S(=O)(=O)N[C@@]4(C(=O)O)C(C)[C@@H]4c4ccccc4)s3)nc2c1 (stereo partly drawn) [Example 2-607]
< 0.1 | < 1 | < 1 | CC1(c2ccc(Cl)cc2)CC1(NS(=O)(=O)c1ccc(-c2cc(C(F)(F)F)on2)s1)C(=O)O (stereo not drawn) [Example 2-608]
< 0.1 | < 0.1 | < 0.1 | CC1[C@H](c2ccccc2)[C@]1(NS(=O)(=O)c1ccc(-c2cc(C(C)(F)F)on2)s1)C(=O)O (stereo partly drawn) [Example 2-609]
< 0.1 | < 1 | ≥ 1 | CC1(c2cccc(Cl)c2)CC1(NS(=O)(=O)c1ccc(-c2cc(C(F)(F)F)on2)s1)C(=O)O (stereo not drawn) [Example 2-612]
< 0.1 | < 1 | < 1 | CC1(c2ccccc2Cl)CC1(NS(=O)(=O)c1ccc(-c2cc(C(F)(F)F)on2)s1)C(=O)O (stereo not drawn) [Example 2-616]
< 0.1 | < 1 | < 1 | C[C@]1(c2cccc(F)c2)C[C@@]1(NS(=O)(=O)c1ccc(-c2cc(C(F)(F)F)on2)s1)C(=O)O [Example 2-618]
< 0.1 | < 1 | < 1 | C[C@]1(c2cccc(Cl)c2)C[C@@]1(NS(=O)(=O)c1ccc(-c2cc(C(F)(F)F)on2)s1)C(=O)O [Example 2-619]
< 0.1 | < 1 | < 0.1 | C[C@]1(c2ccc(Cl)cc2)C[C@@]1(NS(=O)(=O)c1ccc(-c2cc(C(F)(F)F)on2)s1)C(=O)O [Example 2-620]
< 0.1 | < 1 | < 0.1 | C[C@]1(c2ccc(F)cc2)C[C@@]1(NS(=O)(=O)c1ccc(-c2cc(C(F)(F)F)on2)s1)C(=O)O [Example 2-621]
≥ 1 | ≥ 1 | < 1 | CC1[C@H](c2ccccc2)[C@]1(NS(=O)(=O)c1ccc2nc(-c3ccccc3)cn2c1)C(=O)O (stereo partly drawn) [Example 2-622]
< 0.1 | < 1 | < 0.1 | CC1[C@](C)(c2ccccc2)[C@]1(NS(=O)(=O)c1ccc(-c2cc(C(F)(F)F)on2)s1)C(=O)O (stereo partly drawn) [Example 2-623]
